Measurements published in patent US20240270821A1, “GIP/GLP1/GCG TRI-RECEPTOR AGONISTS AND USES THEREOF” (priority 2023, published 2024).
Where two headings read alike, the source gives them in different places. Starred links: 1 amine or outer side, 2 acyl side, 3 side chain; linkers in the order of their positions; H or OH if unused. Non-standard residues stand in square brackets, D forms with d. Residues, ends and D or L forms follow the SMILES beside them. Groups on a side chain read outwards from the residue. No end group written: not given here. *: point of attachment. C20 diacid = O=C(O)CCCCCCCCCCCCCCCCCCC(=O)*; C18 diacid = O=C(O)CCCCCCCCCCCCCCCCC(=O)*; αMePhe(2-F) = C[C@](N)(Cc1ccccc1F)C(=O)O; γGlu = O=C(O)[C@H](CCC(=O)[*:2])N[*:1]; αMe4Pal = C[C@](N)(Cc1ccncc1)C(=O)O; αMeY = C[C@](N)(Cc1ccc(O)cc1)C(=O)O; 4Pal = N[C@@H](Cc1ccncc1)C(=O)O; Aad = N[C@@H](CCCC(=O)O)C(=O)O; αMeL = CC(C)C[C@](C)(N)C(=O)O; αMeS = C[C@](N)(CO)C(=O)O; Orn = NCCC[C@H](N)C(=O)O; AEEA = NCCOCCOCC(=O)O; Aib = CC(C)(N)C(=O)O

How the values were obtained:
Assay type in all cases: cell-based
hGIPR [1] = target: T1, hGIPR (Homo sapiens, UniProt P48546); assay: Functional cAMP activity in the presence of 1% HSA; conditions: read-out: cAMP Rel EC50, hGIPR
T1 sequence (P48546 22-466): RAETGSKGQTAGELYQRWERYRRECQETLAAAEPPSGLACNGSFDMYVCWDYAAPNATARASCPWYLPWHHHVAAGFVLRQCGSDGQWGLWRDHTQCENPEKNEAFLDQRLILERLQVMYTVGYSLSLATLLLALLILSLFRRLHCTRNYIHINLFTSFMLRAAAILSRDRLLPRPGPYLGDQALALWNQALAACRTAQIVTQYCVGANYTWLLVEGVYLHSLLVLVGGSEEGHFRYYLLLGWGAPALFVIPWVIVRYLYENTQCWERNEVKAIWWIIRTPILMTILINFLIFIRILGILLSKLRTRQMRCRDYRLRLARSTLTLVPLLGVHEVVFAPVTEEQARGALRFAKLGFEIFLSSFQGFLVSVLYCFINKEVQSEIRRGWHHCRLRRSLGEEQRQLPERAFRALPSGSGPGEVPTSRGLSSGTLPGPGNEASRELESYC

hGIPR [2] = target: T1, hGIPR; assay: Functional cAMP activation in the presence of 0.1% casein (no HSA); conditions: read-out: Relative cAMP EC50, hGIPR;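 as to Relative cAMP EC50, hGIPR: intracellular cAMP rise after 30 min at 37 °C read by HTRF against a standard curve, scaled between buffer alone (0%) and top control ligand concentration (100%), four-parameter fit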;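 as to Relative cAMP EC50, hGLP-1R: intracellular cAMP rise after 30 min at 37 °C read by HTRF, normalized between buffer only (0%) and maximal control ligand (100%), four-parameter variable-slope fit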;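 as to Relative cAMP EC50, hGcgR: intracellular cAMP rise after 30 min at 37 °C, read by HTRF against a cAMP standard curve, scaled from buffer only (0%) to maximal control ligand response (100%)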
human GcgR = human GcgR (Homo sapiens, UniProt P47871); assay: Functional cAMP activity in the presence of 1% HSA; conditions: read-out: cAMP Rel EC50, hGcgR
Chain of human GcgR (P47871 26-477): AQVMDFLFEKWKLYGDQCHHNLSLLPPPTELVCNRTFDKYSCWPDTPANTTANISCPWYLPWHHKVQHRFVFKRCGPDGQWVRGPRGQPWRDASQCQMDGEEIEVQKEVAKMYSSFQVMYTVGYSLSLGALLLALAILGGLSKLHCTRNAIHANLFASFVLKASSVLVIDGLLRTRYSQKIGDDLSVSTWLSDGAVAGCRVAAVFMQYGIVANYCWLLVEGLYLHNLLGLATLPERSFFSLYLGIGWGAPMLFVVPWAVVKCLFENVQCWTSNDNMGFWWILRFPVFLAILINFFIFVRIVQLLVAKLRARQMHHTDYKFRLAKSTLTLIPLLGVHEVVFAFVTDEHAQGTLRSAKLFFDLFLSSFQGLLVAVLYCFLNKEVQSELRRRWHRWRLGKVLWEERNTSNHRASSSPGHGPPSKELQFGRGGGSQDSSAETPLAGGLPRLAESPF

hGLP-1R [3] = target: T2, hGLP-1R (Homo sapiens, UniProt P43220); assay: Functional cAMP activity in the presence of 1% HSA; conditions: read-out: cAMP Rel EC50, hGLP-1R
T2 sequence (P43220 24-463): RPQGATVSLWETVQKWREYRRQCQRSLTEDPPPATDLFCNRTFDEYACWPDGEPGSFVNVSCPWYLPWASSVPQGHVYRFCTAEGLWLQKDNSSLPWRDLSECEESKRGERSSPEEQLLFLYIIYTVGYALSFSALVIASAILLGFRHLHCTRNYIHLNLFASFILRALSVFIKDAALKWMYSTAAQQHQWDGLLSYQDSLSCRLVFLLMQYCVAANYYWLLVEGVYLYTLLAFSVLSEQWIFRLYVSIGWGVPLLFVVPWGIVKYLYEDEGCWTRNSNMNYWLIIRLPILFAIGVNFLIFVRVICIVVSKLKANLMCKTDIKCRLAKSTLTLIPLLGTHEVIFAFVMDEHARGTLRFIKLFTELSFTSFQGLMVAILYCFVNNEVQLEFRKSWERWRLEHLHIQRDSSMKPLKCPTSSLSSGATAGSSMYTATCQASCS

hGLP-1R [4] = target: T2, hGLP-1R; assay: Functional cAMP activation in the presence of 0.1% casein (no HSA); conditions: read-out: Relative cAMP EC50, hGLP-1R;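 as to Relative cAMP EC50, hGIPR: intracellular cAMP rise after 30 min at 37 °C read by HTRF against a standard curve, scaled between buffer alone (0%) and top control ligand concentration (100%), four-parameter fit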;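 as to Relative cAMP EC50, hGLP-1R: intracellular cAMP rise after 30 min at 37 °C read by HTRF, normalized between buffer only (0%) and maximal control ligand (100%), four-parameter variable-slope fit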;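 as to Relative cAMP EC50, hGcgR: intracellular cAMP rise after 30 min at 37 °C, read by HTRF against a cAMP standard curve, scaled from buffer only (0%) to maximal control ligand response (100%)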
hGcgR = hGcgR (Homo sapiens, UniProt P47871); assay: as above; conditions: read-out: Relative cAMP EC50, hGcgR;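 also: intracellular cAMP rise after 30 min at 37 °C, read by HTRF against a cAMP standard curve, scaled from buffer only (0%) to maximal control ligand response (100%)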
Chain of hGcgR (P47871 26-477): as the sequence (P47871 26-477) above

[5] = in the presence of 0.1% casein (no HSA), geometric mean
[6] = HEK-293 clonal cell line, in the presence of 1% HSA, geometric mean of relative EC50

Molecule	EC50 (hGIPR [1])	EC50 (hGIPR [2]; [5])	EC50 (human GcgR)	EC50 (hGLP-1R [3])	EC50 (hGLP-1R [4]; [5])	EC50 (hGcgR; [5])	EC50 (hGIPR [2])	EC50 (hGLP-1R [4])	EC50 (hGcgR)	EC50 (hGIPR [1]; [6])	EC50 (human GcgR; [6])	EC50 (hGLP-1R [3]; [6])
H-Y[Aib]QGTFTSDFS[Orn][αMeL]LDKK([AEEA-γGlu-C18 diacid])AQ[Aib]AFIEWLLEGGPSSGAPPPEG[4Pal]-NH2 [Example 262]	40.4 nM	0.232 nM	720 nM	400 nM	4.39 nM	9.77 nM	–	–	–	–	–	–
CC[C@H](C)[C@H](NC(=O)[C@H](Cc1ccccc1)NC(=O)[C@H](CCCN)NC(=O)C(C)(C)NC(=O)[C@H](CCC(N)=O)NC(=O)[C@H](C)NC(=O)[C@H](CCCCNC(=O)[C@@H](CCC(=O)O)NC(=O)CC[C@H](NC(=O)CCCCCCCCCCCCCCCCC(=O)O)C(=O)O)NC(=O)[C@H](CCCN)NC(=O)[C@H](CC(=O)O)NC(=O)[C@H](CC(C)C)NC(=O)[C@](C)(CC(C)C)NC(=O)[C@@H](NC(=O)[C@](C)(CO)NC(=O)[C@H](Cc1ccncc1)NC(=O)[C@H](CC(=O)O)NC(=O)[C@H](CO)NC(=O)[C@@H](NC(=O)[C@](C)(Cc1ccccc1F)NC(=O)[C@@H](NC(=O)CNC(=O)[C@H](CCC(N)=O)NC(=O)C(C)(C)NC(=O)[C@@H](N)Cc1ccc(O)cc1)[C@@H](C)O)[C@@H](C)O)[C@@H](C)CC)C(=O)N[C@H](CCC(=O)O)C(=O)N[C@@](C)(Cc1ccc(O)cc1)C(=O)N[C@@H](CC(C)C)C(=O)N[C@@H](CCC(N)=O)C(=O)N[C@@H](CCC(=O)O)C(=O)NCC(=O)NCC(=O)N1CCC[C@H]1C(=O)N[C@@H](CO)C(=O)N[C@@H](CO)C(=O)NCC(=O)N[C@@H](CCC(=O)O)C(=O)N1CCC[C@H]1C(=O)N1CCC[C@H]1C(=O)N1CCC[C@H]1C(=O)N[C@@H](CCC(=O)O)C(=O)NCC(=O)N[C@H](C(=O)N[C@@H](CCC(=O)O)C(=O)N[C@@H](CCC(=O)O)C(=O)N[C@@H](CCC(=O)O)C(N)=O)[C@@H](C)O [Example 596]	1.98 nM	–	385 nM	36.6 nM	–	–	0.0455 nM	0.592 nM	5.71 nM	–	–	–
Y[Aib]QGTFTSD[4Pal]SQ[αMeL]LDKK([dE-γGlu-dE-C18 diacid])AQ[αMe4Pal]AFIEYLIE[Aib]GPSSGAPPPSGS-NH2 [Example 923]	18.5 nM	0.123 nM	1840 nM	870 nM	6.23 nM	9.1 nM	–	–	–	–	–	–
H-Y[Aib]QGTFTSDFS[Orn][αMeL]LDKK([AEEA-AEEA-γGlu-C18 diacid])AQ[Aib]AFIEYLLE[dA]GPSSG[4Pal]PPPSG[4Pal]-NH2 [Example 258]	23.3 nM	0.154 nM	1280 nM	492 nM	2.71 nM	7.15 nM	–	–	–	–	–	–
H-Y[Aib]QGTFTSD[4Pal]S[Orn][αMeL]LD[Orn]K([γGlu-γGlu-C18 diacid])AQ[αMe4Pal][Orn]FIE[αMeY]LLAGGPSSGAPPPSGSEE-NH2 [Example 997]	–	0.373 nM	–	–	20.7 nM	5.01 nM	–	–	–	27.8 nM	527 nM	1880 nM
H-Y[Aib]QGT[αMePhe(2-F)]TSDFSILLDKQAQK([AEEA-AEEA-γGlu-C20 diacid])AFIEYLLEGGPSSGEPPPSEG-NH2 [Example 346]	28.3 nM	0.0738 nM	4310 nM	514 nM	1.17 nM	15.6 nM	–	–	–	–	–	–
H-Y[Aib]QGTFTSDFS[Orn][αMeL]LDKK([AEEA-AEEA-γGlu-C18 diacid])AQ[Aib]AFIEWLLEGGHSSGAPPPGGE-NH2 [Example 271]	15.7 nM	0.152 nM	2680 nM	887 nM	5 nM	8.51 nM	–	–	–	–	–	–
CC[C@H](C)[C@H](NC(=O)[C@H](Cc1ccccc1)NC(=O)[C@H](C)NC(=O)C(C)(C)NC(=O)[C@H](CCC(N)=O)NC(=O)[C@H](C)NC(=O)[C@H](CCCCNC(=O)COCCOCCNC(=O)COCCOCCNC(=O)CC[C@H](NC(=O)CCCCCCCCCCCCCCCCCCC(=O)O)C(=O)O)NC(=O)[C@H](CCCCN)NC(=O)[C@H](CC(=O)O)NC(=O)[C@H](CC(C)C)NC(=O)[C@H](CC(C)C)NC(=O)[C@@H](NC(=O)[C@H](CO)NC(=O)[C@H](Cc1ccc(O)cc1)NC(=O)[C@H](CC(=O)O)NC(=O)[C@H](CO)NC(=O)[C@@H](NC(=O)[C@](C)(Cc1ccccc1F)NC(=O)[C@@H](NC(=O)CNC(=O)[C@H](CCC(N)=O)NC(=O)C(C)(C)NC(=O)[C@@H](N)Cc1ccc(O)cc1)[C@@H](C)O)[C@@H](C)O)[C@@H](C)CC)C(=O)N[C@@H](CCC(=O)O)C(=O)N[C@@H](Cc1ccc(O)cc1)C(=O)N[C@@H](CC(C)C)C(=O)N[C@@H](CC(C)C)C(=O)N[C@@H](CCC(=O)O)C(=O)NCC(=O)NCC(=O)N1CCC[C@H]1C(=O)N[C@@H](CO)C(=O)N[C@@H](CO)C(=O)NCC(=O)N[C@@H](C)C(=O)N1CCC[C@H]1C(=O)N1CCC[C@H]1C(=O)N1CCC[C@H]1C(=O)N[C@@H](CO)C(N)=O [Example 385]	4.03 nM	0.0141 nM	700 nM	86.1 nM	0.235 nM	1 nM	–	–	–	–	–	–
Y[Aib]QGT[αMePhe(2-F)]TSD[4Pal][αMeS]I[αMeL]LD[Orn]K([γGlu-γGlu-C18 diacid])AQ[αMe4Pal]EFI[dE][αMeY]LVEGGPSSGAPPPSGSE-NH2 [Example 1162]	0.656 nM	0.00818 nM	199 nM	34.5 nM	0.372 nM	2.55 nM	–	–	–	–	–	–
H-Y[Aib]QGT[αMePhe(2-F)]TSD[4Pal]SILLD[Orn]K([γGlu-γGlu-C18 diacid])AQ[Aib]AFIEYLQEGGPSSGEPPPSGTEE-NH2 [Example 583]	12.3 nM	–	1250 nM	71 nM	–	–	0.0692 nM	0.542 nM	6.32 nM	–	–	–
CC[C@H](C)[C@H](NC(=O)[C@H](Cc1ccccc1)NC(=O)[C@H](C)NC(=O)C(C)(C)NC(=O)[C@H](CCC(N)=O)NC(=O)[C@H](C)NC(=O)[C@H](CCCCNC(=O)COCCOCCNC(=O)CC[C@H](NC(=O)CCCCCCCCCCCCCCCCC(=O)O)C(=O)O)NC(=O)[C@H](CCCCN)NC(=O)[C@H](CC(=O)O)NC(=O)[C@H](CC(C)C)NC(=O)[C@](C)(CC(C)C)NC(=O)[C@@H](NC(=O)[C@H](CO)NC(=O)[C@H](Cc1ccc(O)cc1)NC(=O)[C@H](CC(=O)O)NC(=O)[C@H](CO)NC(=O)[C@@H](NC(=O)[C@](C)(Cc1ccccc1F)NC(=O)[C@@H](NC(=O)CNC(=O)[C@H](CCC(N)=O)NC(=O)C(C)(C)NC(=O)[C@@H](N)Cc1ccc(O)cc1)[C@@H](C)O)[C@@H](C)O)[C@@H](C)CC)C(=O)N[C@@H](CCC(=O)O)C(=O)N[C@@H](Cc1ccc(O)cc1)C(=O)N[C@@H](CC(C)C)C(=O)N[C@@H](CCC(=O)O)C(=O)N[C@@H](CCC(=O)O)C(=O)NCC(=O)NCC(=O)N1CCC[C@H]1C(=O)N[C@@H](CO)C(=O)N[C@@H](CO)C(=O)NCC(=O)N[C@@H](C)C(=O)N1CCC[C@H]1C(=O)N1CCC[C@H]1C(=O)N1CCC[C@H]1C(=O)N[C@@H](CCC(=O)O)C(N)=O [Example 400] (H-Y[Aib]QGT[αMePhe(2-F)]TSDYSI[αMeL]LDKK([AEEA-γGlu-C18 diacid])AQ[Aib]AFIEYLEEGGPSSGAPPPE-NH2)	3.86 nM	–	265 nM	29.1 nM	–	–	0.0158 nM	0.253 nM	2.53 nM	–	–	–
H-Y[Aib]QGTFTSDFS[Orn][αMeL]LDKK([AEEA-γGlu-C18 diacid])AQ[Aib]AFIEYLLEGGPSSGAPPPGGSG-NH2 [Example 64]	24.9 nM	0.309 nM	626 nM	397 nM	4.08 nM	4.94 nM	–	–	–	–	–	–
Y[Aib]QGT[αMePhe(2-F)]TSD[4Pal]SILLDKK([γGlu-γGlu-C18 diacid])AQ[Aib]AFIEYL[Aad]EGGPSSGAPPPSGTGE-NH2 [Example 661]	4.62 nM	–	160 nM	50.9 nM	–	–	0.0665 nM	1.13 nM	1.78 nM	–	–	–
